Paper PMC6222715, “Squalene Cyclases and Cycloartenol Synthases from Polystichum polyblepharum and Six Allied Ferns” (Molecules : A Journal of Synthetic Chemistry and Natural …, 2018)

Target: PPH (Polystichum polyblepharum, UniProt A0A3G9ELI1)
Test: product formation in yeast cells, GC
Format: cell-based
Details: endogenous squalene accumulated with terbinafine; in vivo; phosphate pH 7.0

Sequence of PPH (A0A3G9ELI1 1-685): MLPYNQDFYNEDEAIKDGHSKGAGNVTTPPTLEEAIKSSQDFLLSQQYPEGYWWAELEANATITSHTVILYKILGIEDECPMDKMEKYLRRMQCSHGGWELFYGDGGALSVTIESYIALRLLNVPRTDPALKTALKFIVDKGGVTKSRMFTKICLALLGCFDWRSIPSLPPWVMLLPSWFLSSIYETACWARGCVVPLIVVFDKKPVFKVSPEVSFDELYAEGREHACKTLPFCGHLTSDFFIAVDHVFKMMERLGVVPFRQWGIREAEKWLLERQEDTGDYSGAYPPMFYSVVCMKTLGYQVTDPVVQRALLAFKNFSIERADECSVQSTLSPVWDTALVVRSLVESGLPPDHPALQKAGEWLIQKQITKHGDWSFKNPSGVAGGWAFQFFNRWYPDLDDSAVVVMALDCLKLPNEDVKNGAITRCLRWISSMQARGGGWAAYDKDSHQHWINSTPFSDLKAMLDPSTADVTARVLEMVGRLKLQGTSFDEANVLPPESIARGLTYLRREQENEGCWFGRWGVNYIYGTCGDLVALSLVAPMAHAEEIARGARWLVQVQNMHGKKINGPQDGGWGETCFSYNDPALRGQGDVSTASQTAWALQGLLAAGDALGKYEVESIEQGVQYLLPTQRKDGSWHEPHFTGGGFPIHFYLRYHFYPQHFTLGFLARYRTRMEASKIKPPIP

With `CC(C)=CCC/C(C)=C/CC/C(C)=C/CC/C=C(\C)CC/C=C(\C)CCC=C(C)C` [compound 1, squalene] the “product formation in yeast cells, GC” value was “PPH could use the accumulated endogenous squalene as an in vivo substrate”.
